# Laboratory results: ChEMBL document CHEMBL1148572, “1-((S)-2-aminopropyl)-1H-indazol-6-ol: a potent peripherally acting 5-HT2 receptor agonist with ocular hypotensive activity” (J Med Chem, 2006)
# Legend:
# [1] = target: 5-hydroxytryptamine receptor 2B (Rattus norvegicus, UniProt P30994); experiment: Activity against 5HT2B receptor in longitudinal stomach fundus strips in wistar rats
# [2] = target: T1, GABA-A receptor; agonist GABA site (Homo sapiens) (UniProt P14867+P47870+P28472+P48169+P34903+P18505+P47869+P31644+Q16445); experiment: Inhibition of agonist site of GABAA receptor at 100 nM; assay type: functional
# [3] = Inhibition of alpha-bungarotoxin insensitive nicotinic receptor at 10 uM
# [4] = target: Sigma non-opioid intracellular receptor 1 (Homo sapiens) (UniProt Q99720); experiment: Inhibition of non selective binding to sigma receptor at 10 uM
# [5] = target: T2, Atrial natriuretic peptide receptor 1 (Homo sapiens) (UniProt P16066); experiment: Inhibition of ANP A at 1 nM
# T2 sequence (whole entry): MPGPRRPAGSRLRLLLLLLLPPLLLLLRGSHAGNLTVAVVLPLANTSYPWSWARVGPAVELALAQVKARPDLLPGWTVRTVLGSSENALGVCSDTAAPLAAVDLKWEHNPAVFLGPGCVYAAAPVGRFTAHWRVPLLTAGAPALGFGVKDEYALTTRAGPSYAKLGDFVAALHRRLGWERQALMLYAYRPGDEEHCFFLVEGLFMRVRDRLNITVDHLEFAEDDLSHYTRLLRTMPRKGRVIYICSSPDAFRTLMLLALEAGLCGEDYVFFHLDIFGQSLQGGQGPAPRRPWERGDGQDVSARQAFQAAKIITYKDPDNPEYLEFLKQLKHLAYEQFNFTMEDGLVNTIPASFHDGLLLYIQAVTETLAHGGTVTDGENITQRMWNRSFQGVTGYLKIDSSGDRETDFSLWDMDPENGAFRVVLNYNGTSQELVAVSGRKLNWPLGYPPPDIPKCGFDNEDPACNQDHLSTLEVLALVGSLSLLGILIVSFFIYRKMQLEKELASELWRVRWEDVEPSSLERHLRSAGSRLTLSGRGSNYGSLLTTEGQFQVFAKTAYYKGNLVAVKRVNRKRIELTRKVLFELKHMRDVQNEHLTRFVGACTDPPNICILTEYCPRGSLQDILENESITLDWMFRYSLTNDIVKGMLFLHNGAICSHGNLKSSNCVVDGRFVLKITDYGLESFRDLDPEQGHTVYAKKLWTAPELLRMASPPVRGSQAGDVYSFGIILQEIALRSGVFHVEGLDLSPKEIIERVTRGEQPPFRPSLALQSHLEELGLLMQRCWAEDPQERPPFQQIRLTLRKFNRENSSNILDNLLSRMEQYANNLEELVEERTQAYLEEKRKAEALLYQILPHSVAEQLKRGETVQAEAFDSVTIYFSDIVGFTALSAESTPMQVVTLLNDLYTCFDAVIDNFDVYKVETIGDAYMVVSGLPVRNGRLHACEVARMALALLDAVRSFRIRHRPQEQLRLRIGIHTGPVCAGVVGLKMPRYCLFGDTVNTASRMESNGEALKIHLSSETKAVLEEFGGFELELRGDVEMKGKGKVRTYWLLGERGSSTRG
# [6] = target: T3, Cysteinyl leukotriene receptor 1 (Homo sapiens) (UniProt Q9Y271); experiment: Inhibition of leukotriene D4 at 100 nM
# T3 sequence (whole entry): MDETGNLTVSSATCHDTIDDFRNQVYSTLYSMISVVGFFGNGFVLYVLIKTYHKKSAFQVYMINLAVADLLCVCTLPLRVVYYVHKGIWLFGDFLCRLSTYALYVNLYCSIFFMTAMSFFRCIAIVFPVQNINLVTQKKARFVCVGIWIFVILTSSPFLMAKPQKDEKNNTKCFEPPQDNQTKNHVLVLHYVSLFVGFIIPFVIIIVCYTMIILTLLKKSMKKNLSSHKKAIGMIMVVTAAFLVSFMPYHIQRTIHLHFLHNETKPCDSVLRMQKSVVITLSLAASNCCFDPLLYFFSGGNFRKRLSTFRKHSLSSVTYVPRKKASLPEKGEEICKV
# [7] = target: T4, Adrenergic receptor beta (Homo sapiens) (UniProt P08588+P07550+P13945); experiment: Inhibition of non selective binding to adrenergic beta receptor at 100 nM; assay type: protein assay
# [8] = Inhibitory activity at TBOB site in GABA gated chloride channel at 1 nM
# [9] = target: Leukotriene B4 receptor (Homo sapiens) (UniProt Q9NPC1+Q15722); experiment: Inhibition of leukotriene B4 at 1 nM; assay type: protein assay
# [10] = target: T4, Adrenergic receptor beta (Homo sapiens); experiment: Inhibition of non selective binding to adrenergic beta receptor at 1 nM; assay type: protein assay
# [11] = target: T1, GABA-A receptor; agonist GABA site (Homo sapiens); experiment: Inhibition of agonist site of GABAA receptor at 1 nM; assay type: functional
# [12] = target: T5, Endothelin-1 receptor (Homo sapiens) (UniProt P25101); experiment: Inhibition of human recombinant endothelin 1 receptor at 10 uM
# T5 sequence (whole entry): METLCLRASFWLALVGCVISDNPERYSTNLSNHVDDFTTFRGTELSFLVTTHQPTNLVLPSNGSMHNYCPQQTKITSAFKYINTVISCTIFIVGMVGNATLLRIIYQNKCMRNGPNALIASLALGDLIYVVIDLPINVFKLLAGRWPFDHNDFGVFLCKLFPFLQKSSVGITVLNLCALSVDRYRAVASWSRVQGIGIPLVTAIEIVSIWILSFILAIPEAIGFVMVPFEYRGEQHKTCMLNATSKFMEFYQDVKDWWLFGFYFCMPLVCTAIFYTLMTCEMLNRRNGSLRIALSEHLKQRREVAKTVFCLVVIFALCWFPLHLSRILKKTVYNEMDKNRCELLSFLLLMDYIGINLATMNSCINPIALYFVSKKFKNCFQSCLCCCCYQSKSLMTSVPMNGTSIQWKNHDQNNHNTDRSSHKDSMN
# [13] = target: Opioid receptors; mu/kappa/delta (Homo sapiens) (UniProt P41145+P41143+P35372); experiment: Inhibition of non selective binding to opiate receptor at 100 nM; assay type: protein assay
# [14] = target: 5-hydroxytryptamine receptor 1B (Homo sapiens, UniProt P28222); experiment: Inhibitory activity against 5HT1B receptor
# [15] = target: T5, Endothelin-1 receptor (Homo sapiens); experiment: Inhibition of human recombinant endothelin 1 receptor 1 nM
# [16] = target: Protein kinase C, PKC; classical/novel (Homo sapiens) (UniProt O94806+P17252+P05129+Q05655+P05771+Q02156+P24723+Q15139+Q04759); experiment: Inhibition of PDBu activated protein kinase C at 100 nM; assay type: protein assay
# Opioid receptors; mu/kappa/delta (Homo sapiens), sequence (P35372 whole entry, looked up): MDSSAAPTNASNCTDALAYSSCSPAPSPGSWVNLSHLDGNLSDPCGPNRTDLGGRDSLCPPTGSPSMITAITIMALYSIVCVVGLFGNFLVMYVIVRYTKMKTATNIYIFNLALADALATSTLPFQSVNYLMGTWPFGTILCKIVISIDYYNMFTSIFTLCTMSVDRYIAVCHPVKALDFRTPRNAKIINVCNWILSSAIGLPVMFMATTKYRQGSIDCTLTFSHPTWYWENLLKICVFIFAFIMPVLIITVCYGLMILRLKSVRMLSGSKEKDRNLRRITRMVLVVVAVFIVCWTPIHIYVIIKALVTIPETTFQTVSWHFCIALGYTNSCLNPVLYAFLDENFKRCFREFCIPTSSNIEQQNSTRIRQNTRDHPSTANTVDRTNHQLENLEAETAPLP
# Opioid receptors; mu/kappa/delta (Homo sapiens), sequence (P41143 whole entry, looked up): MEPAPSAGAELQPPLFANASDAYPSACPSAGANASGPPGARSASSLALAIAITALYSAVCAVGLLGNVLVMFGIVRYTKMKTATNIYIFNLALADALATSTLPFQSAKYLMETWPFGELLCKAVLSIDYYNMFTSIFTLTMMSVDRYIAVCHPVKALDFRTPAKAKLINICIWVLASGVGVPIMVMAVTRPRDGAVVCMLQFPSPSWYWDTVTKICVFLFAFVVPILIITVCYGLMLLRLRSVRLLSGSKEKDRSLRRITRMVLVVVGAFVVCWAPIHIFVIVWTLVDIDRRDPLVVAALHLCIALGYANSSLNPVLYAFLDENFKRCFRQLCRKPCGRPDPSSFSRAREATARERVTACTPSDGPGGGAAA
# Opioid receptors; mu/kappa/delta (Homo sapiens), sequence (P41145 whole entry, looked up): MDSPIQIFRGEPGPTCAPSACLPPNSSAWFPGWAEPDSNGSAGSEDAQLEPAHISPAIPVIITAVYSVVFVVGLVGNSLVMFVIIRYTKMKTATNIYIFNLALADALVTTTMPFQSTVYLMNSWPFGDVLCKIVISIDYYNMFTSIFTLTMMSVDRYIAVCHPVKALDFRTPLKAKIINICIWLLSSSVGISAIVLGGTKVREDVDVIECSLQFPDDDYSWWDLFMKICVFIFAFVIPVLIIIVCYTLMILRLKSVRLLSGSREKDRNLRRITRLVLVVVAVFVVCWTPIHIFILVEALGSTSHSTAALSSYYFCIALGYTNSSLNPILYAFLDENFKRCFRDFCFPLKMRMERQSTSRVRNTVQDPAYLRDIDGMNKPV
# 5-hydroxytryptamine receptor 1B, sequence (P28222 whole entry): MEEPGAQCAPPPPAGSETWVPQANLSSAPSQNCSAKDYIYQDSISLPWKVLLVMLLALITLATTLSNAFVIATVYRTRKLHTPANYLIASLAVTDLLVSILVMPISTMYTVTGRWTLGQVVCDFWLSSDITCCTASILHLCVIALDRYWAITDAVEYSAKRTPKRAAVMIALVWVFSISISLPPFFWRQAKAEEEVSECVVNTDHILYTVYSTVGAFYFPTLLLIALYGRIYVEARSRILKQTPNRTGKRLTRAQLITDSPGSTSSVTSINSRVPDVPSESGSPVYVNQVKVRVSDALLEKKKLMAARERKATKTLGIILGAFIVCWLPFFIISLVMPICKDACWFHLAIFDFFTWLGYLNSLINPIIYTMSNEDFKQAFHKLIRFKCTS
# 5-hydroxytryptamine receptor 2B, sequence (P30994 whole entry): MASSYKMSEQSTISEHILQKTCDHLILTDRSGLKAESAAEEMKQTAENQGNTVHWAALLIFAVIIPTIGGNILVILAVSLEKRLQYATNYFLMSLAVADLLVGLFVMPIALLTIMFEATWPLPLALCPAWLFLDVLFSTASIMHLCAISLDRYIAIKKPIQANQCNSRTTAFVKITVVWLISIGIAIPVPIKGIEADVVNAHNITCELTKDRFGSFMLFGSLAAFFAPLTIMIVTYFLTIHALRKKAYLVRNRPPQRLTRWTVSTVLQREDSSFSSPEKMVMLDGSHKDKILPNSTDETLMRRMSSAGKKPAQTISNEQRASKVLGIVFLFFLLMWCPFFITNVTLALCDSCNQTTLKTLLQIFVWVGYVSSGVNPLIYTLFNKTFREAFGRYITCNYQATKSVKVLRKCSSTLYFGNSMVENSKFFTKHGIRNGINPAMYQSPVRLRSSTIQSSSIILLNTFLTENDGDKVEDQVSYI
# Sigma non-opioid intracellular receptor 1 (Homo sapiens), sequence (Q99720 whole entry): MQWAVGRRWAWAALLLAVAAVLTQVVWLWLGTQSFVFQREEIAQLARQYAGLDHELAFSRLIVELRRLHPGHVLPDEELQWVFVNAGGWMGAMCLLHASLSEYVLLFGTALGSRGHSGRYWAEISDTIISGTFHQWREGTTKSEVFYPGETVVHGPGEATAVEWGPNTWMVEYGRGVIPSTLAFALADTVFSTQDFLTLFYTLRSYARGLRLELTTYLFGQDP
# Leukotriene B4 receptor (Homo sapiens), sequence (Q15722 whole entry, looked up): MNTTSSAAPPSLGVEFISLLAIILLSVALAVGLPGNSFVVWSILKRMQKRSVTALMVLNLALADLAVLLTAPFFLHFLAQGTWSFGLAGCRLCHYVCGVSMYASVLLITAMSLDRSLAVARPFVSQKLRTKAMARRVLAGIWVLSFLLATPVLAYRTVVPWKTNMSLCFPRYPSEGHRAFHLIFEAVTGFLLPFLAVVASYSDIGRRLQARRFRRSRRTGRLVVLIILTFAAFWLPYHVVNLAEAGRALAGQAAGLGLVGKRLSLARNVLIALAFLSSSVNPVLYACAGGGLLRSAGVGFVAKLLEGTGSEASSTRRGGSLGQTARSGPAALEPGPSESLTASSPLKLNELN
# Leukotriene B4 receptor (Homo sapiens), sequence (Q9NPC1 whole entry, looked up): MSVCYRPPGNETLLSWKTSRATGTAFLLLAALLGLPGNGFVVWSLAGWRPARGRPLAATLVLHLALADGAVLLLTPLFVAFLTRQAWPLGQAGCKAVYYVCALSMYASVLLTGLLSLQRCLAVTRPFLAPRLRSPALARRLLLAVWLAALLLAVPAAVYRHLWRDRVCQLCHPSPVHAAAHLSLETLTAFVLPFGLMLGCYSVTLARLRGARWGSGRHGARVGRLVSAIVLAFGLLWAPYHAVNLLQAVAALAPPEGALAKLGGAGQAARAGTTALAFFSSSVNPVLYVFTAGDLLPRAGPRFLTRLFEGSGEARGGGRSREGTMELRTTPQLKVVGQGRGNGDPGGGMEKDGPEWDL
structure (smiles),measurement,setting,value
C[C@H](N)Cn1ncc2ccc(O)cc21,EC50,[1],2 nM
same,inhibition,[2],-0.91%
same,inhibition,[3],7.7%
same,inhibition,[4],-7.73%
same,inhibition,[5],-5.65%
same,inhibition,[6],7.43%
same,inhibition,[7],-7.77%
same,inhibition,[8],-3.75%
same,inhibition,[9],0.44%
same,inhibition,[10],-5.75%
same,inhibition,[11],15.2%
same,inhibition,[12],-6.96%
same,inhibition,[13],-2.14%
same,Ki,[14],> 10000 nM
same,inhibition,[15],2.41%
same,inhibition,[16],11.3%
